Assay [1] concerns species causing the degradation of wine. Nature of the assay: growth of wine-degrading yeasts on selective medium with cycloheximide. As to conditions: in the concentration used by the inventors. The assay is classed as cell-based. From the text: (§1) The procedure requires no sterile laboratory conditions and only little attention is to be paid to ensure that the right sample is placed on the surface of the culture medium. The culture medium contains components easily available. In addition to components used for growth, the medium contains antibiotics inhibiting the growth of yeasts, e.g.—other culture media similar to selective Brettanomyces—cycloheximide as well. This antibiotic is used for the identification of different species in yeast diagnostics.
(§2) In the following examples, unless indicated otherwise, the following concentrations and compositions were applied. Composition of medium that was suitable for growing yeast cells was the following: 1% glucose, 0.67% “yeast nitrogen base”, 2% agar, which was made selectively by using 5 μg/ml cycloheximide as an antibiotics for blocking the growth of Saccharomyces strains. Azure-II-eosinate was used in a 30 μg/ml concentration.

The subject of the next assay is Saccharomyces. Briefly: growth of winemaking yeasts on selective medium with cycloheximide. The assay is classed as cell-based. The following applies: in the concentration used by the inventors.
From the text: as §1, §2

Here are results for one molecule from patent publication US9845487B2, “Selective chromogenic medium” (SZEGEDI TUDOMÁNYEGYETEM, priority 2013, dated 2017).

Consider `C[C@@H]1C[C@@H]([C@H](O)CC2CC(=O)NC(=O)C2)C(=O)[C@@H](C)C1` [cycloheximide], for which the “tolerance by wine-degrading yeast species” value in assay [1] is “still tolerated”. For the same molecule, the “growth inhibition of winemaking yeasts” value with Saccharomyces is “prevents the growth of most yeasts playing a role in wine-making”.
